Entries after “also recorded” stand apart in the source; their conditions may differ. Read-outs that look alike come from different tables or passages of the source.

Data set [1] relates to Oxazolone-induced contact dermatitis in the mouse ear. The data set can be described thus: Model 1: oxazolone-induced contact dermatitis in the mouse ear. Particulars: topical in acetone 30 min post-challenge, 0.5 mg/ear (all-trans retinoic acid 0.01 mg/ear). The data set is classed as in vivo. On the procedure:
(§1) For in vivo assays, the test compounds were dissolved in acetone. Adapalene was tested as a gel formulation (Differin gel 0.1%, 20-30 mg/treatment). The screening doses were 0.5 mg/ear in model 1 and 2. Exception was all-trans retinoic acid (0.01 mg/ear).
Model 1. Oxazolone-induced Contact Dermatitis in the Mouse Ear
AIM Compounds with anti-inflammatory effects in this model may be useful in treating contact eczema in man.
METHODS Groups of 5-6 mice sensitised to oxazolone 4 days before challenge with oxazolone to the right ear. The resulting oedema (right ear thickness minus left ear thickness) is measured 24, 48 and 72 hours post-challenge (PC), and neutrophil (PMN) influx is determined by the myeloperoxidase (MPO) method 72 hours post-challenge in ear biopsies. The screening dose is 0.5 mg/ear or less applied to the right ear 30 min post-challenge (+30 min). Other dosing regimes are stated.
RESULTS Results are recorded as % change from control animals using the formula: 100(T/C-1) where T=mean Oedema/MPO treated group and C=mean Oedema/MPO control group. Negative figures represent inhibition and positive stimulation. The level of significance is set at p<0.05 using the Mann-Whitney's U-test. Significant stimulation is stated.

The test system of data set [2] is TPA-induced chronic skin inflammation in the mouse ear. The experiment in a line: Model 2: TPA-induced chronic skin inflammation in the mouse ear. The data set is classed as in vivo. Particulars: topical in acetone twice daily day 8-10, once day 11, 0.5 mg/ear (all-trans retinoic acid 0.01 mg/ear). On the procedure: as §1
Model 2. Tpa-induced Chronic Skin Inflammation in the Mouse Ear
AIM Compounds with anti-inflammatory effects in this model may be useful in treating chronic skin disorders in man.
METHODS In groups of 5-6 mice, ear inflammation is induced by multiple topical applications of TPA on alternate days during a 10-day period. The resulting inflammation is treated topically with compounds in acetone solution twice daily on day 8, 9 and 10 and once on day 11. Ear thickness (ET) is determined 5-6 hours after the last drug administration, the mice are sacrificed and myeloperoxidase (MPO) activity (=PMN-infiltration) is determined in ear biopsies, cf. De Young, L. M. et al, Agents Actions, 26, 335-341 (1989); Carlson, R. P. et al, Agents Actions, 17, 197-204 (1985); Alford, J. G. et al, Agents Action, 37, (1992); Stanley, P. L. et at, Skin Pharmacol, 4, 262-271 (1991).
RESULTS Results are recorded as % change from control group using the formula: 100(T/C-1) where T=mean ET/MPO treated group and C=mean ET/MPO control group. Negative figures represent inhibition and positive stimulation. The level of significance is set at p<0.05 using the Mann-Whitney's U-test. Significant stimulation is stated.

The subject of data set [3] is utriculi (pseudocomedones) of rhino mouse skin. The experiment in a line: Rhino mouse model (comedolytic and hyperplastic potency, skin irritation). Particulars: for comedolytic effect (reduction in number of utriculi), in words / epidermal hyperplasia (increase in epidermal thickness and follicular epithelia), in words: 1.5% concentration in acetone, three weeks; for % increase in epidermal thickness / % reduction in number of utriculi / Skin irritation YES/NO: once daily for three weeks; for clinical visible skin irritancy, in words: three weeks treatment period.
Procedure: (§2) The rhino mouse is an in vivo model for the study of hyperplastic and comedolytic potency of various drugs used in the treatment of acne. The rhino mouse has follicles on the skin. The orifices are distended with horny material and these structures resembles human microcomedones and are referred to as utriculi or pseudocomedones.
(§3) In the present study the effect of a number of compounds were evaluated in the rhino mouse model. […] Additionally a number of marketed products used today for treatment of acne were selected and included for comparison.
(§4) The animals were treated once daily for three weeks including weekends. […] Histological evaluation of the skin was performed at the end of the treatment period.

For data set [4] the test system is unchanged. Particulars: in vivo.
Procedure: as §2, §3, §4
The conditions of data set [5]: cited from earlier work.
[6] abbreviates: 1.5% in acetone, versus vehicle control.
Where [7] appears, read: Skinoren cream 20%, versus untreated controls.
Where [8] appears, read: Differin gel 0.1%, versus untreated controls.
Setting [9] is: 20 μg/ml in ethanol, period 1, versus vehicle control.
Setting [10] is: Basiron gel 5%, versus untreated controls.
The mark [11] stands for this setting: Basiron gel 10%, versus untreated controls.

As to `Cc1ccccc1C(=O)c1ccc(Nc2ccccc2N)cc1Cl` [Compound 103, 4-(2-aminophenylamino)-2-chloro-2′-methylbenzophenone], the “SCORE OXA Oedema 48 hours p.c.” value in data set [1] is listed as 2 (% inhibition Oedema 48 h PC ≧ 35 p < 0.05). Besides, the “SCORE TPA Ear swelling” value in data set [2] was 2 (% inhibition ET ≧40 p < 0.05). In data set [3], the “comedolytic effect (reduction in number of utriculi), in words” value was “comedolytic effect”; the “epidermal hyperplasia (increase in epidermal thickness and follicular epithelia), in words” value is “epidermal hyperplasia”; the “clinical visible skin irritancy, in words” value was “without concomitant skin irritancy”. Also, the “comedolytic effect (reduction in number of utriculi), in words” value in data set [3] (listed as 4-(2-aminophenylamino)-2-chloro-2′-methylbenzophenone) was “comedolytic activity”. Besides, in data set [3] (setting [6]), the “% increase in epidermal thickness” value was 120% and the “% reduction in number of utriculi” value came to 52.5%.
As for `O=C(O)CCCCCCCC(=O)O` [Azelaic acid], in data set [1], the “SCORE OXA Oedema 48 hours p.c.” value was 0 (% inhibition Oedema 48 h PC < 25). In addition, the “SCORE TPA Ear swelling” value in data set [2] was 0 (% inhibition ET <25). Moreover, in data set [4], the “Skin irritation YES/NO” value is recorded as “NO”. In addition, in data set [5] (topical administration), the Anti-inflam. entry is listed as “Maybe”, the Antibacterial entry is given as “Yes”, the Comedolytic result is listed as “Yes” and the Potential irritant result is “Yes”. In data set [5] (topical administration), the Teratogenic entry is listed as “No”. In addition, in data set [3] (setting [7]), the “% increase in epidermal thickness” value is 75% and the “% reduction in number of utriculi” value is recorded as 5.7%.
As for `CC1=C(/C=C/C(C)=C/C=C/C(C)=C\C(=O)O)C(C)(C)CCC1` [Isotretinoin], in data set [5] (systemic administration), the Anti-inflam. entry is listed as “Yes”, the Antibacterial result was “Yes”, the Comedolytic result is on record as “Yes” and the Potential irritant entry is “Yes”. Besides, in data set [5] (systemic administration), the Teratogenic entry is “Yes”.
On to `CN(C)[C@@H]1C(=O)C(C(N)=O)=C(O)[C@@]2(O)C(=O)C3=C(O)c4c(O)cccc4[C@@](C)(O)[C@H]3C[C@@H]12` [Tetracyclin], for which, in data set [5] (systemic administration), the Anti-inflam. entry is “Yes”, the Antibacterial entry is given as “Yes”, the Comedolytic entry was “No” and the Potential irritant entry was “No”. In addition, the Teratogenic entry in data set [5] (systemic administration) is listed as “Yes”.
With `COc1ccc(-c2ccc3cc(C(=O)O)ccc3c2)cc1C12CC3CC(CC(C3)C1)C2` [Adapalene], in data set [3] (Differin gel 0.1%), the “Skin irritation YES/NO” value was “YES”. In addition, in data set [3] (setting [8]), the “% increase in epidermal thickness” value is listed as 202% and the “% reduction in number of utriculi” value is 92.7%.
For `CC1=C(/C=C/C(C)=C/C=C/C(C)=C/C(=O)O)C(C)(C)CCC1` [All-trans retinoic acid], in data set [1], the “SCORE OXA Oedema 48 hours p.c.” value is 0 (% inhibition Oedema 48 h PC < 25). For the same molecule, the “SCORE TPA Ear swelling” value in data set [2] is 0 (% inhibition ET <25). In data set [5] (topical administration), the Anti-inflam. entry is reported as “No”, the Antibacterial result is given as “No”, the Comedolytic result is “Yes” and the Potential irritant result was “Yes”. Besides, in data set [5] (topical administration), the Teratogenic entry is “Maybe”. The “Skin irritation YES/NO” value in data set [3] (20 μg/ml in ethanol, period 1) is listed as “YES”. Besides, in data set [3] (setting [9]), the “% increase in epidermal thickness” value is reported as 110% and the “% reduction in number of utriculi” value is 81.5%.
As for `C[C@H]1c2cccc(O)c2C(O)=C2C(=O)[C@]3(O)C(O)=C(C(N)=O)C(=O)[C@@H](N(C)C)[C@@H]3[C@@H](O)[C@@H]21` [Doxycyclin], in data set [5] (systemic administration), the Anti-inflam. entry was “Yes”, the Antibacterial result is “Yes”, the Comedolytic result is listed as “No” and the Potential irritant entry is listed as “No”. For the same molecule, in data set [5] (systemic administration), the Teratogenic entry is “Yes”.
`CC[C@H]1OC(=O)[C@H](C)[C@@H](O[C@H]2C[C@@](C)(OC)[C@@H](O)[C@H](C)O2)[C@H](C)[C@@H](O[C@@H]2O[C@H](C)C[C@H](N(C)C)[C@H]2O)[C@](C)(O)C[C@@H](C)C(=O)[C@H](C)[C@@H](O)[C@]1(C)O` [Erythromycin]: in data set [1], the “SCORE OXA Oedema 48 hours p.c.” value is listed as 0 (% inhibition Oedema 48 h PC < 25). Besides, the “SCORE TPA Ear swelling” value in data set [2] is recorded as 1 (% inhibition ET ≧25 p < 0.05).
Consider `CCC[C@@H]1C[C@@H](C(=O)N[C@@H]([C@H]2O[C@H](SC)[C@H](O)[C@@H](O)[C@H]2O)[C@H](C)Cl)N(C)C1` [Clindamycin], for which, in data set [5] (topical administration), the Teratogenic entry was “Probably”.
For `Cc1ccccc1C(=O)c1ccc(Nc2ccc(F)cc2N)cc1Cl` [Compound 102, 4-(2-Amino-4-fluorophenylamino)-2-chloro-2′-methylbenzophenone], in data set [3], the “comedolytic effect (reduction in number of utriculi), in words” value was “comedolytic effect”; the “epidermal hyperplasia (increase in epidermal thickness and follicular epithelia), in words” value is given as “epidermal hyperplasia”.
With `O=C(OOC(=O)c1ccccc1)c1ccccc1` [Benzoyl peroxide], in data set [1], the “SCORE OXA Oedema 48 hours p.c.” value is recorded as 0 (% inhibition Oedema 48 h PC < 25). For the same molecule, the “SCORE TPA Ear swelling” value in data set [2] is recorded as 0 (% inhibition ET <25). Besides, in data set [5] (topical administration), the Anti-inflam. entry was “Maybe”, the Antibacterial result is on record as “Yes”, the Comedolytic entry is given as “Some-” and the Potential irritant entry is on record as “Yes”. In addition, the “Skin irritation YES/NO” value in data set [3] (Basiron gel 5%) is “YES”. In data set [3] (setting [10]), the “% increase in epidermal thickness” value turned out to be 178% and the “% reduction in number of utriculi” value was determined as 46.1%. Further, the “Skin irritation YES/NO” value in data set [3] (Basiron gel 10%) is recorded as “YES”. In addition, in data set [3] (setting [11]), the “% increase in epidermal thickness” value came out at 190% and the “% reduction in number of utriculi” value is listed as 62.1%.
For the molecule `CCOC(=O)Nc1ccccc1Nc1ccc(C(=O)c2ccccc2C)c(Cl)c1` [Compound 106, ethyl N-(2-(4-(2-methylbenzoyl)-3-chlorophenylamino)phenyl)carbamate], in data set [1], the “SCORE OXA Oedema 48 hours p.c.” value was 2 (% inhibition Oedema 48 h PC ≧ 35 p < 0.05). The “SCORE TPA Ear swelling” value in data set [2] is on record as 2 (% inhibition ET ≧40 p < 0.05). Moreover, in data set [3], the “comedolytic effect (reduction in number of utriculi), in words” value is recorded as “comedolytic effect”; the “epidermal hyperplasia (increase in epidermal thickness and follicular epithelia), in words” value is “epidermal hyperplasia”; the “clinical visible skin irritancy, in words” value is recorded as “without concomitant skin irritancy”. Moreover, the “comedolytic effect (reduction in number of utriculi), in words” value in data set [3] (listed as ethyl N-(2-(4-(2-methylbenzoyl)-3-chlorophenylamino)phenyl)carbamate) is listed as “comedolytic activity”. In addition, in data set [3] (setting [6]), the “% increase in epidermal thickness” value is recorded as 146% and the “% reduction in number of utriculi” value is 38.3%.
For the molecule `CN(C)c1ccc(O)c2c1C[C@H]1C[C@H]3[C@H](N(C)C)C(O)=C(C(N)=O)C(=O)[C@@]3(O)C(O)=C1C2=O` [Minocyclin], in data set [5] (systemic administration), the Anti-inflam. result is recorded as “Yes”, the Antibacterial result is on record as “Yes”, the Comedolytic result is “No” and the Teratogenic entry is “Yes”.
Turning to `Cc1ccccc1C(=O)c1ccc(Nc2ccc(Br)cc2N)cc1Cl` [Compound 101, 4-(2-Amino-4-bromophenylamino)-2-chloro-2′-methylbenzophenone], the “SCORE OXA Oedema 48 hours p.c.” value in data set [1] is 2 (% inhibition Oedema 48 h PC ≧ 35 p < 0.05). In data set [2], the “SCORE TPA Ear swelling” value is reported as 3 (% inhibition ET ≧50 p < 0.05). For the same molecule, in data set [3], the “comedolytic effect (reduction in number of utriculi), in words” value is “comedolytic effect; also recorded: most pronounced comedolytic activity”; the “epidermal hyperplasia (increase in epidermal thickness and follicular epithelia), in words” value was “epidermal hyperplasia”; the “clinical visible skin irritancy, in words” value is “without concomitant skin irritancy”. In data set [3] (setting [6]), the “% increase in epidermal thickness” value was determined as 203% and the “% reduction in number of utriculi” value was determined as 67.4%.

The values above are taken from patent publication US6624199B1, “Aminobenzophenones” (Leo Pharmaceuticals Products Ltd. A/S, priority 1999, dated 2003).
